Experiments:
Format in all cases: physicochemical
[1] = Approximate aqueous solubility of salts/co-crystals (visual, solvent addition method); details: water; for solubility: estimated visually, solvent addition method
Procedure: (§1) A weighed sample was treated with aliquots of the test solvent at room temperature. The mixture was sonicated between additions to facilitate dissolution. Complete dissolution of the test material was determined by visual inspection. Solubility was estimated based on the total solvent used to provide complete dissolution. Some samples were then heated and observed visually for complete dissolution. The actual solubility may be greater than the value calculated because of the use of solvent aliquots that were too large or due to a slow rate of dissolution. […] If complete dissolution was achieved as a result of only one aliquot addition, the solubility is expressed as “greater than.”

[2] = Deliquescence of salts/co-crystals during exposure to 75% RH; details: ambient temperature, 3 day exposure; for Observation (deliquescence): visual
Procedure: The salts identified from the salt/co-crystal screen of Compound I (see section 4 above) were assessed visually for deliquescence during exposure to 75% RH at ambient temperature (Table 5). […] The materials from these experiments were recovered and re-analyzed by XRPD to determine if changes in solid form occurred.

[3] = XRPD analysis of remaining solids from aqueous solubility assessments; details: solids recovered from mother liquor of aqueous solubility assessment
Source text: Compound I ethylenediamine A+B disproportionated, as peaks similar to those observed for Compound I free acid Material C were observed.

[4] = Solubility of Compound I sodium salt forms in solvents and binary solvent systems; details: thermodynamic from solid, 60° C., read-out: Solubility
Procedure: as §1

[5] = Dynamic vapor sorption/desorption (DVS)
Procedure: Moisture sorption/desorption data were collected on a VTI SGA-100 Vapor Sorption Analyzer. NaCl and PVP were used as calibration standards. Samples were not dried prior to analysis. Sorption and desorption data were collected over a range from 5% to 95% RH at 10% RH increments under a nitrogen purge. The equilibrium criterion used for analysis was less than 0.0100% weight change in 5 minutes with a maximum equilibration time of 3 hours. Data were not corrected for the initial moisture content of the samples.

[6] = Slurry experiments (form stability); details: for XRPD: room temp.
Procedure: Solutions were prepared by adding enough solids to a given solvent so that excess solids were present. The mixture was then agitated in a sealed vial at either ambient or an elevated temperature. After a given amount of time, the solids were isolated for analysis.
The formation and stability of solid forms of the sodium salt of Compound I was further evaluated via slurry experiments. The slurries were formed by combining Compound I sodium Pattern A and a solvent, and allowing the slurry to equilibrate at room temperature. If a free flowing slurry was not achieved, an additional amount of the respective solvent was added before the room temperature equilibration step. All slurries were isolated via centrifuge filtration after five days and twelve days of equilibration. The solids were analyzed by XRPD to check for pattern conversion (Table 13).

[7] = Stability at elevated temperatures (XRPD, HPLC)
Procedure: The stability of Compound I sodium Patterns A, C, and D and Form B, at about 60° C. was evaluated. These forms were weighed into vials covered with a Kimwipe tissue and stored in an oven at 60° C. and ambient pressure. After three days and ten days of exposure, the solids were analyzed by XRPD to check for form conversion. […].

[8] = listed as Ethylenediamine B + A

**Q.** Which “aqueous solubility (in words)” value [1] does the source give for O=C(O)c1cc(-c2ccc(OC3CC3)c(Cl)c2)ncn1 [Compound I potassium Material A, 6-(3-chloro-4-cyclopropoxyphenyl)pyrimidine-4-carboxylic acid] here?
**A.** suitable aqueous solubility

**Q.** What about the solubility ([1]; listed as Potassium A) of the same compound?
**A.** <4000 µg/mL

**Q.** And the “Observation (deliquescence)” value [2]?
**A.** no deliquescence

**Q.** And the “Result (XRPD of remaining solids)” value [3]?
**A.** converted to a new material

**Q.** What about the “Result (XRPD of remaining solids)” value ([3]; listed as Potassium A) of the same compound?
**A.** broad reflections

**Q.** Which solubility ([4]; organic solvent or mixture, 2-MeTHF) does the source give for O=C(O)c1cc(-c2ccc(OC3CC3)c(Cl)c2)ncn1 [Compound I sodium Pattern A, 6-(3-chloro-4-cyclopropoxyphenyl)pyrimidine-4-carboxylic acid] here?
**A.** < 1100 µg/mL

**Q.** What about the solubility ([4]; organic solvent or mixture, ACN) of the same compound?
**A.** < 1200 µg/mL

**Q.** And the solubility ([4]; organic solvent or mixture, Acetone)?
**A.** < 1300 µg/mL

**Q.** And the solubility ([4]; organic solvent or mixture, BuOH)?
**A.** < 1200 µg/mL

**Q.** What about the solubility ([4]; organic solvent or mixture, DCM) of the same compound?
**A.** < 1300 µg/mL

**Q.** And the solubility ([4]; organic solvent or mixture, DMF)?
**A.** 5800 to 7700 µg/mL

**Q.** And the solubility ([4]; organic solvent or mixture, DMSO)?
**A.** 7500 to 11300 µg/mL

**Q.** What about the solubility ([4]; organic solvent or mixture, EtOAc) of the same compound?
**A.** < 1100 µg/mL

**Q.** What about the solubility ([4]; organic solvent or mixture, EtOH) of the same compound?
**A.** < 1300 µg/mL

**Q.** And the solubility ([4]; organic solvent or mixture, Heptane)?
**A.** < 1200 µg/mL

**Q.** And the solubility ([4]; organic solvent or mixture, IPA)?
**A.** < 1100 µg/mL

**Q.** What about the solubility ([4]; organic solvent or mixture, IPAc) of the same compound?
**A.** < 1100 µg/mL

**Q.** And the solubility ([4]; organic solvent or mixture, MEK)?
**A.** < 1300 µg/mL

**Q.** And the solubility ([4]; organic solvent or mixture, MIBK)?
**A.** < 1200 µg/mL

**Q.** And the solubility ([4]; organic solvent or mixture, MTBE)?
**A.** < 1100 µg/mL

**Q.** And the solubility ([4]; organic solvent or mixture, MeOH)?
**A.** 5000 to 6700 µg/mL

**Q.** And the solubility ([4]; organic solvent or mixture, NMP)?
**A.** 10300 to 20500 µg/mL

**Q.** And the solubility ([4]; organic solvent or mixture, THF)?
**A.** < 1300 µg/mL

**Q.** And the solubility ([4]; organic solvent or mixture, Toluene)?
**A.** < 1100 µg/mL

**Q.** What about the solubility ([4]; organic solvent or mixture, c-Hexane) of the same compound?
**A.** < 1200 µg/mL

**Q.** What about the solubility ([4]; Water) of the same compound?
**A.** 10000 to 20000 µg/mL

**Q.** And the “hygroscopicity by DVS analysis (in words)” value [5]?
**A.** hygroscopic

**Q.** What about the “deliquescence (in words)” value ([5]; DVS analysis) of the same compound?
**A.** did not show any indications of deliquescence

**Q.** What about the “material recovered from the DVS analysis compared with starting material by XRPD” value ([5]; after DVS) of the same compound?
**A.** substantially the same as the starting material

**Q.** What about the DVS weight gain ([5]; at 60% RH) of the same compound?
**A.** about 4.9%

**Q.** And the DVS weight gain ([5]; at 90% RH)?
**A.** about 21.2%

**Q.** What about the XRPD ([6]; ACN slurry, 12 days, dry) of the same compound?
**A.** Amorphous

**Q.** And the XRPD ([6]; ACN slurry, 12 days, wet)?
**A.** Amorphous

**Q.** And the XRPD ([6]; DCM slurry, 12 days, dry)?
**A.** Low

**Q.** What about the XRPD ([6]; DCM slurry, 12 days, wet) of the same compound?
**A.** Low

**Q.** What about the XRPD ([6]; EtOAc slurry, 5 days) of the same compound?
**A.** Amorphous

**Q.** What about the XRPD ([6]; EtOH slurry, 5 days) of the same compound?
**A.** Amorphous

**Q.** What about the XRPD ([6]; THF slurry, 5 days) of the same compound?
**A.** Amorphous

**Q.** And the XRPD ([6]; THF slurry, 12 days, dry)?
**A.** Amorphous

**Q.** And the XRPD ([6]; THF slurry, 12 days, wet)?
**A.** Amorphous

**Q.** What about the “form conversion in slurry / trituration” value ([6]; acetone and/or isopropanol (trituration, single form or competitive slurry)) of the same compound?
**A.** converted to Compound I sodium Form B

**Q.** What about the “relative stability of the form (in words)” value ([6]; at the conditions evaluated) of the same compound?
**A.** metastable relative to Compound I sodium Form B

**Q.** What about the “form conversion in slurry / trituration” value ([6]; solvent systems with high water activity) of the same compound?
**A.** rehydrated to Compound I Form E

**Q.** And the “stability in slurry (in words)” value ([6]; water, toluene, DCM and MEK)?
**A.** stable as a single form for about five days

**Q.** And the “chemical and physical form changes after storing at elevated temperature” value ([7]; about 60° C.)?
**A.** No chemical and physical form changes were observed

**Q.** And the HPLC ([7]; after storage at 60 ° C. (time point not given))?
**A.** >99.9 % AUC

**Q.** Which results are given for O=C(O)c1cc(-c2ccc(OC3CC3)c(Cl)c2)ncn1 [Compound I ethylenediamine Materials A+B, 6-(3-chloro-4-cyclopropoxyphenyl)pyrimidine-4-carboxylic acid]?
**A.** aqueous solubility (in words) [1]: suitable aqueous solubility; solubility [1, 8]: <10000 µg/mL; Observation (deliquescence) [2]: no deliquescence; Result (XRPD of remaining solids) ([3]; listed as Compound I ethylenediamine A+B): disproportionated; Result (XRPD of remaining solids) [3, 8]: Ethylenediamine B + Free Acid C

**Q.** For O=C(O)c1cc(-c2ccc(OC3CC3)c(Cl)c2)ncn1 [Compound I benzathine Form A, 6-(3-chloro-4-cyclopropoxyphenyl)pyrimidine-4-carboxylic acid], which “aqueous solubility (in words)” value [1] is on record?
**A.** poor low aqueous solubility

**Q.** And the solubility ([1]; listed as Benzathine A)?
**A.** <7000 µg/mL

**Q.** What about the “Result (XRPD after exposure)” value ([2]; listed as Benzathine A) of the same compound?
**A.** Benzathine A

**Q.** And the “Observation (deliquescence)” value [2]?
**A.** no deliquescence

**Q.** And the “Result (XRPD of remaining solids)” value [3]?
**A.** remained unchanged by XRPD

**Q.** What about the “Result (XRPD of remaining solids)” value ([3]; listed as Benzathine A) of the same compound?
**A.** Benzathine A
